Reference: ChEMBL document CHEMBL2046326, “Selective hydroboration of dieneamines. Formation of hydroxyalkylphenothiazines as MDR modulators” (Bioorg Med Chem, 2012)
The source made the active and inactive calls. The rule behind the calls is not given here.

Assays:
[1] = system: Hepatocyte; assay: Inhibition of P-glycoprotein in rat primary hepatocytes assessed as increase in intracellular rhodamine 123 accumulation at 100 uM after 3 hrs relative to control; format: cell-based
[2] = system: Hepatocyte; assay: Inhibition of P-glycoprotein in rat primary hepatocytes assessed as increase in intracellular rhodamine 123 accumulation at 100 uM after 3 hrs; format: cell-based
[3] = system: Hepatocyte; conditions: Rattus norvegicus, 10 to 50 uM
[4] = system: Hepatocyte; assay: Inhibition of P-glycoprotein in rat primary hepatocytes assessed as increase in intracellular rhodamine 123 accumulation after 3 hrs; format: cell-based

## COc1ccc(-n2nnc(CCCCN3c4ccccc4Sc4ccccc43)n2)cc1
[1]
  inhibition: 20%

## COc1ccc(-n2nnc(/C=C\C=C\N3c4ccccc4Sc4ccccc43)n2)cc1
[2]
  inhibition: inactive

## COc1ccc(CCN(C)CCCC(C#N)(c2ccc(OC)c(OC)c2)C(C)C)cc1OC (stereo not given)
[3]
  inhibition: Active

## COc1ccc(-n2nnc(CCC(O)CN3c4ccccc4Sc4ccccc43)n2)cc1 (stereo not given)
[4]
  inhibition: Dose-dependent effect

## COc1ccc(-n2nnc(CCCN3c4ccccc4Sc4ccccc43)n2)cc1
[2]
  inhibition: inactive
